US12728186B2, “Methods and kits for preparing pathogen-inactivated whole blood” (priority 2018, dated 2026)
“And” between values parts separate entries of the source, which are not always exact repeats. Equal values may be shown once.

Assays:
Type in all cases: physicochemical
[1] = Residual amustaline, Example 8 (2-container processing before component preparation); details: Units 2-7
Method: Additionally, a study was performed to evaluate plasma and red blood cells prepared from a pathogen-inactivated whole blood composition, either shortly after the whole blood PI treatment process, or after storing the pathogen-inactivated whole blood at 4° C. prior to preparing the plasma and red blood cell components. Donor whole blood units were pooled and split into seven units (e.g., to standardize across units), and subjected to treatment conditions as follows. Unit 1 was the control and treated only with saline, while units 2-7 were treated with amustaline and GSH, at concentrations of about 0.2 mM and 2.0 mM, respectively. Following addition of the amustaline and GSH, or the saline, in the first container (bag), the units were incubated at 22° C. for 22 hours, and then transferred to the second container (bag). Sampling was done at the time of transfer, and also at 24 hours and 26 hours (2 or 4 hours post-transfer, also incubated at 22° C.), for analysis of residual amustaline, hemolysis and/or fibrinogen and Factor VIII levels. […] Additionally, at Days 2, 5 and 7, samples were removed from the stored pathogen-inactivated whole blood, centrifuged to obtain plasma and red blood cells, and similarly analyzed. […]

[2] = Residual amustaline by LCMS, Example 6 further example (direct donor collection into 2-container kit); details: donor blood collected into 2-container kit with CPDA-1; 22° C. 20 hours, second container 2-4 hours
Method: In another example, a 2-container kit comprising a treatment container and a filter set (e.g., described above) for introducing the amustaline/GSH (e.g., FIG. 8c) is used to collect from a donor 450 mL of whole blood into the first container that contains 63 mL of anticoagulant CPDA-1 (e.g., blood:anticoagulant ratio approximately 7:1), through the first inlet port. The collection line is then closed using a medical tubing clamp and the whole blood and anticoagulant solution are mixed. The pathogen inactivation compound amustaline and the quencher GSH are next added to the whole blood in the first container through the second port, to final concentrations of about 0.2 mM and 2.0 mM, respectively. The mixture of whole blood, PIC and quencher are incubated at 22° C. for 20 hours, followed by transfer of the mixture to the second container, clamping the tubing between the first and second containers, and incubating the mixture at 22° C. for a further 2-4 hours to provide a pathogen-inactivated whole blood unit.

[3] = Residual unreacted amustaline by LCMS, Example 2 (3-container kit)
Method: Another study was performed to evaluate the effect of container transfer on residual levels of amustaline after pathogen-inactivation of whole blood using a 3-container kit of the present disclosure to allow for one or two transfer steps from the initial (e.g., first) container and a similar filter set as Example 1. Six ABO matched whole blood units in anticoagulant were pooled and split into six ~450 mL units transferred into the first blood bag container of the kit comprising Transfufol 3226 PVC film (Renolit), followed by severing and sealing the pooled donor blood bag, and subsequent connection by tubing welding of a filter set to the same input port (e.g., attached tubing) of the first container, for transferring amustaline and GSH into the whole blood. Amustaline and GSH were added to the whole blood units at final concentrations of 0.2 mM and 2.0 mM, respectively, followed by transfer of the mixture to the second bag (Transfufol 3226 PVC film) and incubated at 22° C. At 22 hr, samples were taken for analysis along with transfer of the mixture to the third bag (Transfufol 3226 PVC film), followed by further incubation at 22° C., with additional samples taken for analysis at 24 hr (i.e., 2 hr post-final transfer) and 26 hr (i.e., 4 hr post-final transfer).
Samples were analyzed by LCMS to determine the level of residual, unreacted amustaline as previously described.

O=C(CCNc1c2ccccc2nc2ccccc12)OCCN(CCCl)CCCl [amustaline]
Residual amustaline levels in pathogen-inactivated whole blood, 22 hr ([1]; 22 hr (time of transfer), first container 22° C. for 22 hours, then second container): 1.46 nM and 1.39 nM and 1.35 nM and 1.96 nM and 1.84 nM and 1.55 nM | Residual amustaline levels in pathogen-inactivated whole blood, 26 hr ([1]; 26 hr (4 hours post-transfer, 22° C.), second container from 22 hr): BLOQ (BLOQ = Below Limit of Quantitation (e.g., < 0.75 nM)) | Residual amustaline levels in the pathogen-inactivated whole blood preparation [2]: below 1 nm | Residual amustaline levels in pathogen-inactivated whole blood, 22 hr ([3]; Units 1-6, 3-container kit (PVC), moved to second bag after amustaline/GSH addition, 22° C., 22 hr, at transfer to third bag): 1.46 nM and 1.39 nM and 1.35 nM and 1.96 nM and 1.84 nM and 1.55 nM | Residual amustaline levels in pathogen-inactivated whole blood, 26 hr ([3]; Units 1-6, 3-container kit (PVC), third bag from 22 hr, 22° C., 26 hr (4 hr post-final transfer)): BLOQ (BLOQ = Below Limit of Quantitation (e.g., < 0.75 nM)) | residual amustaline levels after transfer to third bag ([3]; third bag after 22 hr, further 22° C. for 2 hr or 4 hr, all samples): below 1 nM
